One compound from patent US20060100269A1, “Use of 10-aminoaliphatyl-dibenz[b,f]oxepines for the treatment of degenerative ocular disorders” (priority 2003, published 2006) can be followed below.

For experiment [1], the system named is retinal ganglion cells (RGCs). Briefly: transient retinal ischemia by selective ligature of ophthalmic vessels, RGC rescue. It counts as in vivo. To be noted: adult Sprague-Dawley rats; 60 minutes ischemia causing 30% RGC death seven days after ischemia; intraperitoneal injection, 0.005 mg/kg. The procedure: In particular, in adult Sprague-Dawley rats, transient retinal ischemia induced by selective ligature of ophthalmic vessels for 60 minutes, causes a 30% RGC death seven days after ischemia.

In experiment [2] the test system is retinal ganglion cells (RGCs). Briefly: crush of the rat optic nerve, RGC loss and apoptotic nuclei. Format: in vivo. To be noted: 0.1 mg/kg subcutaneously, assessed 18 days after optic nerve crush.

Compound `C#CCN(C)CC1=Cc2ccccc2Oc2ccccc21.O=C(O)/C=C\C(=O)O` [N-(dibenz[b,f]oxepin-10-ylmethyl)-N-methyl-N-prop-2-ynylamine hydrogen maleate] came in with an RGC rescue rate in experiment [1] of 45%. Besides, in experiment [2], the “increase in apoptotic nuclei” value is given as “significantly reduces” and the “loss of RGCs” value is “significantly reduces”.
